Test results taken from patent publication US11998610B2, “Conjugates and methods of using the same” (Flagship Pioneering Innovations V, Inc., priority 2018, dated 2024).
Non-standard residues stand in square brackets, D forms with d. Residues, ends and D or L forms follow the SMILES beside them. *: point of attachment. Butyryl = CCCC(=O)*

Experiments:
[1] = tested on: E. coli CFT073 ATCC 700928 and/or E. coli Nissle 1917; assay: Cell-based assay with ClbP with LCMS, ClbP positive strain; details: ClbP-encoding E. coli, 10 μM compound, 37° C., 20 h
Protocol: (§1) This example is representative of the methods described in Example 97. ClbP was tested for its ability to activate compounds. […] Each of these three strains was struck out onto an appropriate solid media such as LB agar or BHI agar. The bacteria were then grown aerobically overnight at 37° C.
(§2) A single colony was isolated from the plate and inoculated into 10 mL LB. The liquid cultures were grown overnight aerobically at 37° C. with rocking on a nutator.
(§3) The saturated E. coli cultures were transferred into a biosafety cabinet. 5 μL of each culture was inoculated into fresh LB broth (200 μL total, 1:40 (v/v) dilution of the overnight culture), and the tested compound was added to a final concentration of 10 μM. To establish the native stability of the compound in media alone, the compound was also added to uninoculated media at a final concentration of 10 μM. Each compound was tested in duplicate with each strain or the media-alone incubation. The plate was sealed and incubated aerobically on a nutator at 37° C. for 20 h.
(§4) After 20 h, the reactions were stopped by addition of 200 μL acetonitrile. The contents of each well were mixed, and then the plate was centrifuged (4,000 rpm, 10 min). The plate was diluted serially to a final dilution of 1:100 first with Acetonitrile (10× dilution) and then with (4:1) Mobile Phase A-20 mM ammonium formate+water:Mobile Phase B-Isopropanol:Methanol:Water (4:4:2)+20 mM ammonium formate (10× dilution).
(§5) The amount of each remaining parent compound in each incubation was quantified by LC-MS analysis, with multiple-reaction monitoring targeting transitions specific to each parent compound.
(§6) The amount of compound present in the media-alone condition was normalized to 100%. The amount of parent compound present in the reaction with the ClbP-encoding E. coli (E. coli CFT073 ATCC 700928 and/or E. coli Nissle 1917) was compared to the amount present in the media-alone and expressed as a percent. Likewise, the amount of parent compound present in the reaction with the negative control E. coli BL21(DE3) was compared to the amount present in the media-alone and expressed as a percent.
(§7) In an ideal case, the amount of residual starting material in the reaction(s) with ClbP-encoding E. coli was <25% of the amount in the E. coli BL21(DE3) and media-alone conditions. In an acceptable case, the amount of residual starting material in the reaction(s) with ClbP-encoding E. coli was 25-75% of the amount in the E. coli BL21(DE3) and media-alone conditions. In a non-preferred case, the amount of residual starting material in the reaction(s) with ClbP-encoding E. coli was >75% of the amount in the E. coli BL21(DE3) and media-alone conditions.

[2] = In vitro Colonic Material Stability Assay; assay type: in vitro ADME; details: for Assay 3 (% Remaining at 24 h): colonic material slurry, anaerobic, 1 or 10 μM
Protocol: Assay 3 In vitro Colonic Material Stability Assay. This assay was used to assess the stability of an acylated active agent in a large intestine. All experiments were performed in an anaerobic chamber containing 90% nitrogen, 5% hydrogen and 5% carbon dioxide. Colonic material was resuspended as a slurry (15% w/v final concentration) in pre-reduced, anaerobically sterilized dilution blanks (Anaerobe Systems AS-908). The colonic material was then inoculated into 96 well plates containing YCFAC media (Anaerobe Systems AS-680) or other suitable media (6.7 μL slurry into 1 mL total media). Compounds or groups of compounds were added to each individual well to reach a final analyte concentration of 1 or 10 μM, and the material was mixed by pipetting. Sample was removed after set timepoints (0, 120, 240, 480, 1440, 2880 minutes after initiation of the assay), quenched with acetonitrile containing internal standard, and analyzed by LC/MS.

[3] = tested on: E. coli BL21(DE3); assay: Cell-based assay with ClbP with LCMS, ClbP negative strain; details: 10 μM compound, 37° C., 20 h
Protocol: as §1, §2, §3, §4, §5, §6, §7

[4] = Stability of conjugates in Simulated Gastric Fluid (SGF); assay type: in vitro ADME; details: simulated gastric fluid pH 1.6 with pepsin, 1 μM, 37° C.
Protocol: Assay 1. Stability of conjugates in Simulated Gastric Fluid (SGF). This assay was used to assess the stability of a conjugate in a stomach. Medium was prepared by dissolving 2 g of sodium chloride in 0.6 L in ultrapure water (MilliQ®, Millipore Sigma, Darmstadt, Germany). The pH was adjusted to 1.6 with 1N hydrochloric acid, and the volume was then adjusted to 1 L with purified water. 60 mg FaSSIF powder (Biorelevant™, London, UK) were dissolved in 500 mL buffer (above). Pepsin was added (0.1 mg/mL) (Millipore Sigma, Darmstadt, Germany), and the solution was stirred. The resulting SGF media were used fresh for each experiment. Test compounds were dissolved in DMSO stock to 1 mM. An aliquot of the DMSO stock solution was removed and diluted in the SGF Media in 15 mL falcon tubes to generate a total compound concentration of 1 μM. A 1 mL aliquot was immediately removed and diluted once with 1 volume of acetonitrile for T0 timepoint. The mixture was sealed and mixed at 37° C. in an incubator. Aliquots (1 mL) were removed at regular intervals and immediately quenched by the addition of 1 volume of acetonitrile. The resulting samples were analyzed by LC/MS to determine degradation rates in SGF.

[5] = Stability of conjugates in Simulated Intestinal Fluid (SIF); assay type: in vitro ADME; details: simulated intestinal fluid pH 6.7 with pancreatin, 1 μM, 37° C.
Protocol: Assay 2. Stability of conjugates in Simulated Intestinal Fluid (SIF). This assay was used to assess the stability of a conjugate in a small intestine. Phosphate buffer was prepared by dissolving 0.42 g of sodium hydroxide pellets and 3.95 g of monobasic sodium phosphate monohydrate and 6.19 g of sodium chloride in ultrapure water (MilliQ®, Millipore Sigma, Darmstadt, Germany). The pH was adjusted to 6.7 using aq. HCl and aq. NaOH, as necessary, and the solution was diluted with ultrapure water to produce 1 L of the pH 6.7 buffer. 112 mg FaSSIF powder (Biorelevant™, London, UK) was dissolved in 50 mL of the pH 6.7 buffer. 2 to 3 mL of the resulting solution were then added to 500 mg pancreatin (Millipore Sigma, Darmstadt, Germany). The resulting mixture was agitated by finger tapping the vessel containing the mixture until milky suspension formed. At this time, the remainder of the 50 mL FaSSiF/pH 6.7 buffer solution was added. The resulting suspension was flipped upside down 10 times to produce SIF, which was used fresh. Test compounds were dissolved in DMSO stock to 1 mM. An aliquot of the DMSO stock solution was removed and diluted in the SIF media in 15 mL falcon tubes to produce a mixture with a tested compound concentration of 1 μM. A 1 mL aliquot was immediately removed and diluted once with 1 volume of acetonitrile for T0 timepoint. The mixture was sealed and agitated at 37° C. in an incubator. Aliquots (1 mL) were removed at regular intervals and immediately quenched by the addition of 1 volume of acetonitrile. The resulting samples were analyzed by LC/MS to determine degradation rates

| Structure (SMILES) | % Remaining in ClbP Positve Relative to Media-Only [1] | Assay 3 (% Remaining at 24 h) [2] | % Remaining in ClbP Negative Relative to Media-Only [3] | Assay 1 (SGF) (% Remaining @ 1 hours) [4] | Assay 2 (SIF) (% @ Remaining 4 hours) [5] | Selective delivery to the colon (conclusion from Table 2) ([2]; from SGF, SIF and colonic material stability) |
| --- | --- | --- | --- | --- | --- | --- |
| CCCCCCOC(=O)N[C@H](CC(N)=O)C(=O)N[C@@H](C)C(=O)OC [Example 52, Methyl ((hexyloxy)carbonyl)-D-asparaginyl-L-alaninate] | ++ (<25% compound remaining in the 20 μM WT ClbP reaction relative to the control) | B (25-75% of the tested compound remaining) | ++ (<25% compound remaining in the 20 μM WT ClbP reaction relative to the control) |  |  |  |
| COC(=O)[C@H](C)NC(=O)[C@@H](CC(N)=O)NC(=O)c1cn(C2CC2)c2cc(N3CCNCC3)c(F)cc2c1=O [Example 19, Methyl (1-cyclopropyl-6-fluoro-4-oxo-7-(piperazin-1-yl)-1,4-dihydroquinoline-3-carbonyl)-D-asparaginyl-L-alaninate] | + (between 25-75% compound remaining in the 20 μM WT ClbP reaction relative to the no-enzyme control) | A (<25% of the tested compound remaining) | − (>75% compound remaining in the 20 μM WT ClbP reaction relative to the no-enzyme control) |  |  |  |
| CCCCCCCC(=O)N[C@H](CC(N)=O)C(=O)N[C@@H](C)CCC(=O)OC [Example 42, Methyl (S)-4-((R)-4-amino-2-octanamido-4-oxobutanamido)pentanoate] | − (>75% compound remaining in the 20 μM WT ClbP reaction relative to the no-enzyme control) | C (>75% of the tested compound remaining) | − (>75% compound remaining in the 20 μM WT ClbP reaction relative to the no-enzyme control) |  |  |  |
| CCCC(=O)N[C@H](CC(N)=O)C(=O)N[C@@H](C)CCC(=O)Oc1ccccc1 [Example 25, Phenyl (S)-4-((R)-4-amino-2-butyramido-4-oxobutanamido)pentanoate] | + (between 25-75% compound remaining in the 20 μM WT ClbP reaction relative to the no-enzyme control) | B (25-75% of the tested compound remaining) | − (>75% compound remaining in the 20 μM WT ClbP reaction relative to the no-enzyme control) | C (>75% of the tested compound remaining) |  |  |
| CCCCCCCCCCCCOC(=O)N[C@H](CC(N)=O)C(=O)N[C@@H](C)C(=O)OC [Example 59, Methyl ((dodecyloxy)carbonyl)-D-asparaginyl-L-alaninate] | ++ (<25% compound remaining in the 20 μM WT ClbP reaction relative to the control) | C (>75% of the tested compound remaining) | ++ (<25% compound remaining in the 20 μM WT ClbP reaction relative to the control) |  |  |  |
| CCCCCCCC(=O)N[C@H](CC(N)=O)C(=O)NCCCC(=O)Oc1ccc2c(C)cc(=O)oc2c1 [Example 67, 4-methyl-2-oxo-2H-chromen-7-yl (R)-4-(4-amino-2-octanamido-4-oxobutanamido)butanoate] |  |  |  | C (>75% of the tested compound remaining) | A (<25% of the tested compound remaining) |  |
| CCCCCCCCCCCCNC(=O)N[C@H](CC(N)=O)C(=O)N[C@@H](C)C(=O)OC [Example 60, Methyl (dodecylcarbamoyl)-D-asparaginyl-L-alaninate] | + (between 25-75% compound remaining in the 20 μM WT ClbP reaction relative to the no-enzyme control) | C (>75% of the tested compound remaining) | + (between 25-75% compound remaining in the 20 μM WT ClbP reaction relative to the no-enzyme control) |  |  |  |
| CCCCCCCC(=O)N[C@H](CC(N)=O)C(=O)N[C@@H](C)CNC(=O)OC [Example 45, Methyl ((S)-2-((R)-4-amino-2-octanamido-4-oxobutanamido)propyl)carbamate] | + (between 25-75% compound remaining in the 20 μM WT ClbP reaction relative to the no-enzyme control) | B (25-75% of the tested compound remaining) | − (>75% compound remaining in the 20 μM WT ClbP reaction relative to the no-enzyme control) |  |  |  |
| CCCCCCCCCCCCCC(=O)N[C@H](CC(N)=O)C(=O)NCCC(C)(C)C(=O)OC [Example 34, Methyl (R)-4-(4-amino-4-oxo-2-tetradecanamidobutanamido)-2,2-dimethylbutanoate] | + (between 25-75% compound remaining in the 20 μM WT ClbP reaction relative to the no-enzyme control) | C (>75% of the tested compound remaining) | − (>75% compound remaining in the 20 μM WT ClbP reaction relative to the no-enzyme control) | C (>75% of the tested compound remaining) |  |  |
| CCCC(=O)N[C@H](CC(N)=O)C(=O)N[C@@H](C)C(=O)OC [Example 12, Methyl butyryl-D-asparaginyl-L-alaninate] (Butyryl-[dN]-Ala-OMe) |  | A (<25% of the tested compound remaining) | + (between 25-75% compound remaining in the 20 μM WT ClbP reaction relative to the no-enzyme control) |  | C (>75% of the tested compound remaining) | can be selectively delivered to the colon |
